Laboratory results from PubChem BioAssay (NCI).
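Five compound concentrations were applied to cells in 96-well plates for 48 hours; endpoints were derived by simple linear interpolation of the resulting dose-response curve. GI50 = concentration required for 50% inhibition of growth. TGI marks complete inhibition of growth.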

Experiments:
Assay in all cases: NCI tumour cell line growth inhibition, 48 h
[1] = test system: K-562 leukemia
[2] = test system: HOP-92 NSCLC
[3] = test system: OVCAR-4 ovarian
[4] = test system: OVCAR-5 ovarian
[5] = test system: KM12 colon
[6] = test system: HL-60(TB) leukemia
[7] = test system: SR leukemia
[8] = test system: SF-268 CNS
[9] = test system: CAKI-1 renal
[10] = test system: SK-MEL-2 melanoma
[11] = test system: OVCAR-3 ovarian
[12] = test system: SW-620 colon
[13] = test system: SF-295 CNS
[14] = test system: SNB-19 CNS
[15] = test system: T-47D breast
[16] = test system: HCC-2998 colon
[17] = test system: OVCAR-8 ovarian
[18] = test system: SF-539 CNS
[19] = test system: NCI/ADR-RES ovarian
[20] = test system: BT-549 breast
[21] = test system: NCI-H226 lung
[22] = test system: COLO 205 colon
[23] = test system: HT29 colon
[24] = test system: A498 renal
[25] = test system: DU-145 prostate
[26] = test system: 786-0 renal
[27] = test system: NCI-H460 lung
[28] = test system: MCF7 breast
[29] = test system: RXF 393 renal
[30] = test system: SK-MEL-5 melanoma
[31] = test system: MDA-MB-231 breast
[32] = test system: UACC-257 melanoma
[33] = test system: HCT-15 colon
[34] = test system: HOP-62 NSCLC
[35] = test system: MOLT-4 leukemia
[36] = test system: LOX IMVI melanoma
[37] = test system: CCRF-CEM leukemia
[38] = test system: A549 NSCLC
[39] = test system: SNB-75 CNS
[40] = test system: M14 melanoma
[41] = test system: HCT-116 colon
[42] = test system: UO-31 renal
[43] = test system: RPMI-8226 leukemia
[44] = test system: NCI-H522 lung
[45] = test system: SK-MEL-28 melanoma
[46] = test system: HS 578T breast
[47] = test system: MDA-MB-435
[48] = test system: TK-10 renal
[49] = test system: U251 CNS
[50] = test system: SN12C renal
[51] = test system: SK-OV-3 ovarian
[52] = test system: IGROV1 ovarian
[53] = test system: ACHN renal
[54] = test system: MALME-3M melanoma

## Cc1cccc2nc3ccccc3c(Nc3ccc(NS(C)(=O)=O)cc3)c12
[1]
  GI50: 5.62 µM
  TGI: 26.8 µM
[2]
  GI50: 2.17 µM
  TGI: 11.1 µM
[3]
  GI50: 13 µM
  TGI: 49.5 µM
[4]
  GI50: 16.4 µM
  TGI: 38.9 µM
[5]
  GI50: 6.19 µM
  TGI: 22.4 µM
[6]
  GI50: 2.05 µM
  TGI: 5.53 µM
[7]
  GI50: 1.51 µM
  TGI: 6.7 µM
[8]
  GI50: 10.2 µM
  TGI: 30.2 µM
[9]
  GI50: 3.63 µM
  TGI: 19.9 µM
[10]
  GI50: 16.9 µM
  TGI: 31.8 µM
[11]
  GI50: 14.1 µM
  TGI: 37 µM
[12]
  GI50: 4.27 µM
  TGI: 20.3 µM
[13]
  GI50: 5.2 µM
  TGI: 47.5 µM
[14]
  GI50: 6.98 µM
  TGI: 56.2 µM
[15]
  GI50: 7.59 µM
  TGI: 24 µM
[16]
  GI50: 8.09 µM
  TGI: 21.4 µM
[17]
  GI50: 6.23 µM
  TGI: 30.9 µM
[18]
  GI50: 10.3 µM
  TGI: 22.8 µM
[19]
  GI50: 15.8 µM
  TGI: 48.8 µM
[20]
  GI50: 14.3 µM
  TGI: 27.7 µM
[21]
  GI50: 2.2 µM
  TGI: 7.15 µM
[22]
  GI50: 7.61 µM
  TGI: 24 µM
[23]
  GI50: 5.18 µM
  TGI: 24.8 µM
[24]
  GI50: 3.81 µM
  TGI: 19.4 µM
[25]
  GI50: 3.76 µM
  TGI: 22.6 µM
[26]
  GI50: 5.03 µM
  TGI: 16.6 µM
[27]
  GI50: 2.45 µM
  TGI: 11.7 µM
[28]
  GI50: 3.62 µM
  TGI: 21.7 µM
[29]
  GI50: 10.8 µM
  TGI: 23.6 µM
[30]
  GI50: 4.91 µM
  TGI: 17.5 µM
[31]
  GI50: 9.57 µM
  TGI: 24.2 µM
[32]
  GI50: 10.4 µM
  TGI: 22.9 µM
[33]
  GI50: 5.89 µM
  TGI: 31.6 µM
[34]
  GI50: 4.69 µM
  TGI: 17 µM
[35]
  GI50: 1.72 µM
  TGI: 5.91 µM
[36]
  GI50: 3.38 µM
  TGI: 15.1 µM
[37]
  GI50: 3.26 µM
  TGI: 12.2 µM
[38]
  GI50: 1.88 µM
  TGI: 12.4 µM
[39]
  GI50: 13 µM
  TGI: 52.2 µM
[40]
  GI50: 9.95 µM
  TGI: 23 µM
[41]
  GI50: 3.67 µM
  TGI: 15.9 µM
[42]
  GI50: 2.61 µM
  TGI: 12.4 µM
[43]
  GI50: 2.68 µM
  TGI: 9.19 µM
[44]
  GI50: 8.09 µM
  TGI: 22 µM
[45]
  GI50: 13.8 µM
  TGI: 29.6 µM
[46]
  GI50: 8.88 µM
  TGI: 31.7 µM
[47]
  GI50: 13.5 µM
  TGI: 34.2 µM
[48]
  GI50: 6.58 µM
  TGI: 21 µM
[49]
  GI50: 3.15 µM
  TGI: 13.5 µM
[50]
  GI50: 3.55 µM
  TGI: 15.4 µM
[51]
  GI50: 6.22 µM
  TGI: 55.5 µM
[52]
  GI50: 4.3 µM
  TGI: 38.6 µM
[53]
  GI50: 2.69 µM
  TGI: 11 µM
[54]
  GI50: 4.99 µM
  TGI: 19.4 µM
